Experimental data: ChEMBL document CHEMBL4190297, “Cafestol, a Bioactive Substance in Coffee, Has Antidiabetic Properties in KKAy Mice” (J Nat Prod, 2017)
Active and inactive are the calls of the source. The calls are words filed in the database; no cut-off is given here.

Key:
Mus musculus [1] = species: Mus musculus; experiment: Antidiabetic activity in KK-Ay diabetic mouse model assessed as effect on total cholesterol level at 0.14 to 1.1 mg added daily to normal chow pellets for 10 weeks by colorimetric analysis; assay type: functional, organism-based
Mus musculus [2] = species: Mus musculus; experiment: Effect on CD36 mRNA expression levels in muscle of KK-Ay diabetic mouse model at 0.4 to 1.1 mg added daily to normal chow pellets for 10 weeks by qRT-PCR analysis; assay type: functional, organism-based
Mus musculus [3] = species: Mus musculus; experiment: Effect on SOD1 mRNA expression levels in muscle of KK-Ay diabetic mouse model at 0.4 to 1.1 mg added daily to normal chow pellets for 10 weeks by qRT-PCR analysis; assay type: functional, organism-based
Mus musculus [4] = species: Mus musculus; experiment: Induction of 3.3 mM glucose-stimulated insulin secretion in pancreatic islets isolated from KK-Ay diabetic mouse model at 0.4 mg added daily to normal chow pellets for 10 weeks followed by glucose stimulation of isolated pancreatic islets for 1 hr by radioimmunoassay relative to control; assay type: functional
Mus musculus [5] = species: Mus musculus; experiment: Induction of […] glucose-stimulated insulin secretion in pancreatic islets isolated from KK-Ay diabetic mouse model at 1.1 mg added daily to normal chow pellets for 10 weeks followed by glucose stimulation of isolated pancreatic islets for 1 hr by radioimmunoassay relative to control; assay type: functional
Mus musculus [6] = species: Mus musculus; experiment: Effect on GLUT2 mRNA expression levels in adipose tissue of KK-Ay diabetic mouse model at 0.4 to 1.1 mg added daily to normal chow pellets for 10 weeks by qRT-PCR analysis; assay type: functional, organism-based
Mus musculus [7] = species: Mus musculus; experiment: Effect on G6PD mRNA expression levels in liver of KK-Ay diabetic mouse model at 0.4 to 1.1 mg added daily to normal chow pellets for 10 weeks by qRT-PCR analysis; assay type: functional, organism-based
Mus musculus [8] = species: Mus musculus; experiment: Effect on Mtor mRNA expression levels in muscle of KK-Ay diabetic mouse model at 0.4 to 1.1 mg added daily to normal chow pellets for 10 weeks by qRT-PCR analysis; assay type: functional, organism-based
Mus musculus [9] = species: Mus musculus; experiment: Effect on Hprt1 mRNA expression levels in liver of KK-Ay diabetic mouse model at 0.4 to 1.1 mg added daily to normal chow pellets for 10 weeks by qRT-PCR analysis; assay type: functional, organism-based
Mus musculus [10] = species: Mus musculus; experiment: Induction of […] glucose-stimulated insulin secretion in pancreatic islets isolated from KK-Ay diabetic mouse model at 0.4 mg added daily to normal chow pellets for 10 weeks followed by glucose stimulation of isolated pancreatic islets for 1 hr by radioimmunoassay relative to control; assay type: functional
Mus musculus [11] = species: Mus musculus; experiment: Effect on InsR mRNA expression levels in adipose tissue of KK-Ay diabetic mouse model at 0.4 to 1.1 mg added daily to normal chow pellets for 10 weeks by qRT-PCR analysis; assay type: functional, organism-based
Mus musculus [12] = species: Mus musculus; experiment: Antidiabetic activity in KK-Ay diabetic mouse model assessed as reduction in plasma glucagon levels at 1.1 mg added daily to normal chow pellets for 10 weeks relative to control by radioimmunoassay; assay type: functional; parameters: scale not given: the % may be the effect or the level left
Mus musculus [13] = species: Mus musculus; experiment: Effect on Abca1 mRNA expression levels in adipose tissue of KK-Ay diabetic mouse model at 0.4 to 1.1 mg added daily to normal chow pellets for 10 weeks by qRT-PCR analysis; assay type: functional, organism-based
Mus musculus [14] = species: Mus musculus; experiment: Antidiabetic activity in KK-Ay diabetic mouse model assessed as mean fasting blood glucose level at 1.1 mg added daily to normal chow pellets for 10 weeks (reference value: 18 +/- 1.2 mmol/L); assay type: functional
Mus musculus [15] = species: Mus musculus; experiment: Antidiabetic activity in KK-Ay diabetic mouse model assessed as increase in INSR mRNA expression levels in liver tissue at 1.1 mg added daily to normal chow pellets for 10 weeks by qRT-PCR analysis; assay type: functional, organism-based
Mus musculus [16] = species: Mus musculus; experiment: Effect on Adipor1 mRNA expression levels in adipose tissue of KK-Ay diabetic mouse model at 0.4 to 1.1 mg added daily to normal chow pellets for 10 weeks by qRT-PCR analysis; assay type: functional, organism-based
Mus musculus [17] = species: Mus musculus; experiment: Effect on PKCdelta mRNA expression levels in liver of KK-Ay diabetic mouse model at 0.4 to 1.1 mg added daily to normal chow pellets for 10 weeks by qRT-PCR analysis; assay type: functional, organism-based
Mus musculus [18] = species: Mus musculus; experiment: Toxicity in KK-Ay diabetic mouse model assessed as effect on body weight at 0.4 mg added daily to normal chow pellets for 4 weeks; assay type: organism-based; details: in vivo, po, 672 h
Mus musculus [19] = species: Mus musculus; experiment: Effect on Gcgr mRNA expression levels in liver of KK-Ay diabetic mouse model at 0.4 to 1.1 mg added daily to normal chow pellets for 10 weeks by qRT-PCR analysis; assay type: functional, organism-based
Mus musculus [20] = species: Mus musculus; experiment: Effect on LXRalpha mRNA expression levels in liver of KK-Ay diabetic mouse model at 0.4 to 1.1 mg added daily to normal chow pellets for 10 weeks by qRT-PCR analysis; assay type: functional, organism-based
Mus musculus [21] = species: Mus musculus; experiment: Effect on Acaca mRNA expression levels in muscle of KK-Ay diabetic mouse model at 0.4 to 1.1 mg added daily to normal chow pellets for 10 weeks by qRT-PCR analysis; assay type: functional, organism-based
Mus musculus [22] = species: Mus musculus; experiment: Toxicity in KK-Ay diabetic mouse model assessed as effect on average 24 hrs food consumption by measured food consumption at 0.4 mg added daily to normal chow pellets for 10 weeks (reference value: 4.7 +/- 0.2 g); assay type: organism-based; details: in vivo, po
Mus musculus [23] = species: Mus musculus; experiment: Antidiabetic activity in KK-Ay diabetic mouse model assessed as increase in insulin levels in plasma at 1.1 mg added daily to normal chow pellets for 10 weeks by radioimmunoassay; assay type: functional, organism-based
Mus musculus [24] = species: Mus musculus; experiment: Effect on GLUT2 mRNA expression levels in liver of KK-Ay diabetic mouse model at 0.4 to 1.1 mg added daily to normal chow pellets for 10 weeks by qRT-PCR analysis; assay type: functional, organism-based
Mus musculus [25] = species: Mus musculus; experiment: Effect on LXRalpha mRNA expression levels in muscle of KK-Ay diabetic mouse model at 0.4 to 1.1 mg added daily to normal chow pellets for 10 weeks by qRT-PCR analysis; assay type: functional, organism-based
Mus musculus [26] = species: Mus musculus; experiment: Effect on PPARGC1alpha mRNA expression levels in muscle of KK-Ay diabetic mouse model at 0.4 to 1.1 mg added daily to normal chow pellets for 10 weeks by qRT-PCR analysis; assay type: functional, organism-based
Mus musculus [27] = species: Mus musculus; experiment: Effect on Lipc mRNA expression levels in adipose tissue of KK-Ay diabetic mouse model at 0.4 to 1.1 mg added daily to normal chow pellets for 10 weeks by qRT-PCR analysis; assay type: functional, organism-based
Mus musculus [28] = species: Mus musculus; experiment: Effect on Lipc mRNA expression levels in muscle of KK-Ay diabetic mouse model at 0.4 to 1.1 mg added daily to normal chow pellets for 10 weeks by qRT-PCR analysis; assay type: functional, organism-based
Mus musculus [29] = species: Mus musculus; experiment: Antidiabetic activity in KK-Ay diabetic mouse model assessed as non-fasting blood glucose level at 1.1 mg added daily to normal chow pellets for 10 weeks (reference value: 26.2 +/- 1.2 mmol/L); assay type: functional
Mus musculus [30] = species: Mus musculus; experiment: Effect on Hprt1 mRNA expression levels in adipose tissue of KK-Ay diabetic mouse model at 0.4 to 1.1 mg added daily to normal chow pellets for 10 weeks by qRT-PCR analysis; assay type: functional, organism-based
Mus musculus [31] = species: Mus musculus; experiment: Effect on Gcgr mRNA expression levels in adipose tissue of KK-Ay diabetic mouse model at 0.4 to 1.1 mg added daily to normal chow pellets for 10 weeks by qRT-PCR analysis; assay type: functional, organism-based
Mus musculus [32] = species: Mus musculus; experiment: Antidiabetic activity in KK-Ay diabetic mouse model assessed as reduction in plasma glucagon levels at 0.4 mg added daily to normal chow pellets for 10 weeks relative to control by radioimmunoassay; assay type: functional; parameters: scale not given: the % may be the effect or the level left

SMILES: C[C@@]12CCc3occc3[C@H]1CC[C@@]13C[C@H](CC[C@H]12)[C@@](O)(CO)C3
- Activity (Mus musculus [1]): inactive
- Activity (Mus musculus [2]): inactive
- Activity (Mus musculus [3]): inactive
- Activity (Mus musculus [4]): 67%
- Activity (Mus musculus [5]): 75%
- Activity (Mus musculus [6]): inactive
- Activity (Mus musculus [7]): inactive
- Activity (Mus musculus [8]): inactive
- Activity (Mus musculus [9]): inactive
- Activity (Mus musculus [10]): 87%
- Activity (Mus musculus [11]): inactive
- Activity (Mus musculus [12]): 20%
- Activity (Mus musculus [13]): inactive
- Activity (Mus musculus [14]): 12.9 mmol/L
- Activity (Mus musculus [15]): Active
- Activity (Mus musculus [16]): inactive
- Activity (Mus musculus [17]): inactive
- Activity (Mus musculus [18]): Non-Toxic
- Activity (Mus musculus [19]): inactive
- Activity (Mus musculus [20]): inactive
- Activity (Mus musculus [21]): inactive
- Activity (Mus musculus [22]): 5.4 g
- Activity (Mus musculus [23]): inactive
- Activity (Mus musculus [24]): inactive
- Activity (Mus musculus [25]): inactive
- Activity (Mus musculus [26]): inactive
- Activity (Mus musculus [27]): inactive
- Activity (Mus musculus [28]): inactive
- Activity (Mus musculus [29]): 19.7 mmol/L
- Activity (Mus musculus [30]): inactive
- Activity (Mus musculus [31]): inactive
- Activity (Mus musculus [32]): 28%
